Experimental data reported in patent US20120136046A1, “METHOD OF TREATING AGE RELATED DISORDERS” (Chronos Therapeutics Limited, priority 2009, published 2012).

How the values were obtained:
C. elegans = C. elegans lifespan, percentage of living worms over time; format: in vivo; conditions: FIG. 5
Protocol: FK-506 was added to C. elegans during the timed egg laying stage and lifespan was measured as described in Sutphin, G. L., and Kaeberlein, M., (2009) J. Vis. Exp, 27. Briefly this method comprises synchronising a population of worms and measuring the percentage of living worms at a range of time points, scoring live worms by their ability to respond to physical stimulus.

S. cerevisiae = test: Chronological lifespan of yeast, outgrowth method (Bioscreen C); format: cell-based; conditions: FIG. 4
Protocol: Lifespan was measured using the outgrowth method described by Murakami, C. and Kaeberlein, M., (2009) J. Vis. Exp, 27. Briefly, chronological lifespan of yeast refers to the profile of viability of an ageing yeast culture over time. To measure this a yeast culture is grown in liquid media until the glucose carbon source is exhausted and the cells stop dividing. At this point the proportion of cells which are alive and able to divide is measured by observing the outgrowth characteristics of a fresh inoculate of the ageing culture using a Bioscreen™ C machine (Oy Growth Curves Ab Ltd, Finland). Viabilities at various time points are compared to determine the chronological lifespan of the culture.

[1] = test system: MRC5 human fibroblast cell line; test: Cell division rate / replicative lifespan of MRC5 fibroblasts; format: cell-based
Protocol: The cell division rate was measured using the method of Fairweather, D. S., M. Fox, and G. P. Margison, (1987), Exp Cell Res, 168(1): p. 153-9. Briefly, the replicative lifespan of MRC5 cells are measured by growing them on the surface of dishes until the reach confluencey whereupon they are split at a 1:2 ratio (i.e. diluted 1 in 2). The number of times the culture is split is equal to that of the number of divisions the cells are able to undertake which is the cultures replicative lifespan. MRC5 cells are only able to divide a finite number of times, and as they reach the end of their life the time they take to undergo cell division increases. In this instance the rate of cell division is used as a measure of age.

C=CC[C@@H]1/C=C(\C)C[C@H](C)C[C@H](OC)[C@H]2O[C@@](O)(C(=O)C(=O)N3CCCC[C@H]3C(=O)O[C@H](/C(C)=C/[C@@H]3CC[C@@H](O)[C@H](OC)C3)[C@H](C)[C@@H](O)CC1=O)[C@H](C)C[C@@H]2OC [FK-506, fujimycin]
lifespan of C. elegans (C. elegans; added during the timed egg laying stage): prolongs the lifespan of C. elegans in a dose dependent manner
viability of the organisms (chronological lifespan) (C. elegans; addition of 4μ/ml): significant increase in the viability
effect on the chronological lifespan of the cells compared to the control (S. cerevisiae; 0.1 ng/ml in the culture medium): no significant effect
effect on the median lifespan of the yeast cells compared to the control (S. cerevisiae; 1 ng/ml or more in the culture medium): significant effect increasing the median lifespan
age dependent reduction in cell division rate ([1]; MRC5 cells, FIG. 6): appears to reverse age dependent reduction in cell division rate
division time compared to a control having no FK-506 added ([1]; MRC5 cells, addition after 39 divisions): reduction of the division time
toxicity to the cells ([1]; higher concentrations): becomes toxic to the cells
